Read-outs that look alike come from different tables or passages of the source.
Legend:
Rhesus PDE2A3 = Rhesus PDE2A3 (Macaca mulatta, UniProt B3VTJ2); assay: PDE2 fluorescence polarization (IMAP FP) inhibition assay, rhesus enzyme; format: biochemical, rhesus macaque
How it was run: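 Rhesus PDE2A3 came from lysate of transiently transfected AD293 cells, diluted to give 20% substrate conversion. Substrate was 50 nM FAM-cAMP with 1 uM cGMP activator in Tris pH 7.2/MgCl2 buffer, run 60 min at room temperature over 10-point 3-fold dilutions in 1% DMSO. Read-out was IMAP fluorescence polarization (mP) after ≥1 h binding.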

human PDE2A1 = human PDE2A1 (Homo sapiens (Human), UniProt O00408); assay: IMAP FP PDE selectivity panel, human PDE2A1; format: biochemical
How it was run: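 GST-tagged human PDE2A1 expressed in insect cells, run at room temperature for 60 min with 50 nM FAM-cAMP containing 1000 nM cGMP, pH 7.2 Tris/MgCl2 buffer. IMAP fluorescence polarization read after binding step.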

[1] = Rhesus PDE2, Lab B, read-out: Rhesus PDE2 Ki (nM) - Lab B
[2] = Human PDE2, Lab B, read-out: Human PDE2 Ki (nM) - Lab B
[3] = Rhesus PDE2, Lab A, read-out: Rhesus PDE2 Ki (nM) - Lab A
[4] = Human PDE2, Lab A, read-out: Human PDE2 Ki (nM) - Lab A

Sequence of Rhesus PDE2A3 (B3VTJ2 1-941): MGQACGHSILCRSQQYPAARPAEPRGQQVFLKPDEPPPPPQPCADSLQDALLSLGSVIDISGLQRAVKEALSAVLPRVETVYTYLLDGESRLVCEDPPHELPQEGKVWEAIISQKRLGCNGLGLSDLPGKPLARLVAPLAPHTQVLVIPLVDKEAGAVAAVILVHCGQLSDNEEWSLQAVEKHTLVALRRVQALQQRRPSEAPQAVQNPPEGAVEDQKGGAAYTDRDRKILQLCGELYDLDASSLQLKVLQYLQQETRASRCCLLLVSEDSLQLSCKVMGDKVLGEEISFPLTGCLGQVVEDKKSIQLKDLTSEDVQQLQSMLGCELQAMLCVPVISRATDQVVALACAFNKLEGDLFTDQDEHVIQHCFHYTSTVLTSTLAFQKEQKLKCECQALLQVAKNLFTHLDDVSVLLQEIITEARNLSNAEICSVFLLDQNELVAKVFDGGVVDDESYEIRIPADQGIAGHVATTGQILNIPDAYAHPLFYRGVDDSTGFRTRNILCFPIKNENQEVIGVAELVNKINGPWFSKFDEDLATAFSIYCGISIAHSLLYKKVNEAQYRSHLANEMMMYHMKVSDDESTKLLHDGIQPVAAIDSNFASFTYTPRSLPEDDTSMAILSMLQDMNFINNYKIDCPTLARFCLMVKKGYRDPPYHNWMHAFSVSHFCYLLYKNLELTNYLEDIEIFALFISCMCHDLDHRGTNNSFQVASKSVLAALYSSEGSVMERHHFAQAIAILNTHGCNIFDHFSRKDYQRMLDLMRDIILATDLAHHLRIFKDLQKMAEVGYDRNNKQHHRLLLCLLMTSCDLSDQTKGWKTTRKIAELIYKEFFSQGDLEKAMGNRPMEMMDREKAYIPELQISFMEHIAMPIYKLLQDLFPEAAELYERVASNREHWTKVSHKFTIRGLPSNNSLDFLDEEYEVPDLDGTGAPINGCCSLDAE
Sequence of human PDE2A1 (O00408 other isoform, or with tags, fused parts or gaps): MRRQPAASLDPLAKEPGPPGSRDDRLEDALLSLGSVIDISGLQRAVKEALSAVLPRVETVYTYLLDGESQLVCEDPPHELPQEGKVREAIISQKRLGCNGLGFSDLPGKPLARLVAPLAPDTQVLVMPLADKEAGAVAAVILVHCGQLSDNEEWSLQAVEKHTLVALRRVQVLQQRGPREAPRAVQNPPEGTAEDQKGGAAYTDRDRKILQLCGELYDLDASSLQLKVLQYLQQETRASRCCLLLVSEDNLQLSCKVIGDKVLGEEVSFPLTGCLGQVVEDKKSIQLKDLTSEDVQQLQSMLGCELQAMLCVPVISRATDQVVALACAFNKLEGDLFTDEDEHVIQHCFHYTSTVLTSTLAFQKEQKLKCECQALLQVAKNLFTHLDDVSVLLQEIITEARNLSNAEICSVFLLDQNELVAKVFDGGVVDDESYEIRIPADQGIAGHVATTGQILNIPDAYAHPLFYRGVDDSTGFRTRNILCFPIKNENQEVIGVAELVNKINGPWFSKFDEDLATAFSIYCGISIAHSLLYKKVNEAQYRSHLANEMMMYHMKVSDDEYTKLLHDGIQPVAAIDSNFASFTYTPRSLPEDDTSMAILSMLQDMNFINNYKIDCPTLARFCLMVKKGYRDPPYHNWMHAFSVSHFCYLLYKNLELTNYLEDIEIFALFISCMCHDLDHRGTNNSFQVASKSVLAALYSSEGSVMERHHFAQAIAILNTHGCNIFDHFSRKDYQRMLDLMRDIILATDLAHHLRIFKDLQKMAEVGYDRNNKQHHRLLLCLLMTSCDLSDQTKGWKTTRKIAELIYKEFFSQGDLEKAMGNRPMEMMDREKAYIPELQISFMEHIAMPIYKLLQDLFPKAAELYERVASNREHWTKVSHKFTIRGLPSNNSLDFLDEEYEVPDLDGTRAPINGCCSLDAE

| SMILES | Ki (Rhesus PDE2A3; [1]) | Ki (human PDE2A1; [2]) | Ki (Rhesus PDE2A3; [3]) | Ki (human PDE2A1; [4]) |
| --- | --- | --- | --- | --- |
| COc1ccc(Cc2nc(C(=O)N[C@@H](c3ccc(OC(F)(F)F)c(F)c3)C3CC3)cc(=O)[nH]2)cc1F [Example 521, N-{(R)-cyclopropyl[3-fluoro-4-(trifluoromethoxy)phenyl]methyl}-2-(3-fluoro-4-methoxybenzyl)-6-oxo-1,6-dihydropyrimidine-4-carboxamide] | 2.3 nM | 2.2 nM |  |  |
| O=C(N[C@@H](c1ccc(S(F)(F)(F)(F)F)cc1)C1CC1)c1cc(=O)[nH]c(-c2ccccc2)n1 [Example 404, N-{(R)-cyclopropyl[4-(pentafluoro-λ^6-sulfanyl)phenyl]methyl}-6-oxo-2-phenyl-1,6-dihydropyrimidine-4-carboxamide] | 9.5 nM | 6.5 nM |  |  |
| CC(C)(NC(=O)c1cc(=O)[nH]c(-c2ccccc2)n1)c1ccc(C(F)(F)F)c(F)c1 [Example 158, N-{1-[3-fluoro-4-(trifluoromethyl)phenyl]-1-methylethyl}-6-oxo-2-phenyl-1,6-dihydropyrimidine-4-carboxamide] |  |  | 14 nM | 9 nM |
| Cc1nc(C(=O)NC(C)(c2ccc(S(F)(F)(F)(F)F)cc2)C(C)C)cc(=O)[nH]1 (racemic) [Example 619, N-{1,2-dimethyl-1-[4-(pentafluoro-λ^6-sulfanyl)phenyl]propyl}-2-methyl-6-oxo-1,6-dihydropyrimidine-4-carboxamide] | 62 nM | 67 nM |  |  |
| O=C(N[C@@H](c1ccc(OC(F)(F)F)c(F)c1)C1CC1)c1cc(=O)[nH]c(C2CC2)n1 [Example 212] |  |  | 6.1 nM | 2.6 nM |
| C[C@@H](NC(=O)c1nc(C2CCC2)[nH]c(=O)c1C1CCC1)c1ccc(C(F)(F)F)cc1 [Example 335, (R)-2,5-dicyclobutyl-6-oxo-N-(1-(4-(trifluoromethyl)phenyl)ethyl)-1,6-dihydropyrimidine-4-carboxamide] |  |  | 1320 nM | 1220 nM |
| COC(=O)c1ccc([C@@H](C)NC(=O)c2cc(=O)[nH]c(-c3ccccc3)n2)cc1 [Example 359, methyl 4-[(1R)-1-{[(6-oxo-2-phenyl-1,6-dihydropyrimidin-4-yl)carbonyl]amino}ethyl]benzoate] | 173 nM | 129 nM | 62 nM |  |
| CC(C)[C@@H](NC(=O)c1cc(=O)[nH]c(C2CC2)n1)c1ccc(S(F)(F)(F)(F)F)cc1 [Example 247, 2-cyclopropyl-N-{(1R)-2-methyl-1-[4-(pentafluoro-λ^6-sulfanyl)phenyl]propyl}-6-oxo-1,6-dihydropyrimidine-4-carboxamide] | 2.5 nM | 2.7 nM | 1.7 nM |  |
| CCc1nc(C(=O)NC2(c3ccc(OC(F)(F)F)c(F)c3)CC2)cc(=O)[nH]1 [Example 602] | 5.2 nM | 4.2 nM |  |  |
| Cc1nc(C(=O)NC(C)(C)c2ccc(C(F)(F)F)cc2F)cc(=O)[nH]1 [Example 596, N-{1-[2-fluoro-4-(trifluoromethyl)phenyl]-1-methylethyl}-2-methyl-6-oxo-1,6-dihydropyrimidine-4-carboxamide] | 30 nM | 22 nM |  |  |
| Cc1nc(C(=O)N[C@H](C)c2cccc3ccccc23)cc(=O)[nH]1 [Example 301, (R)-2-methyl-N-(1-(naphthalen-1-yl)ethyl)-6-oxo-1,6-dihydropyrimidine-4-carboxamide] |  |  | 53 nM | 66 nM |
| Cc1nc(C(=O)NC(C)(C)c2ccc(SC(F)(F)F)c(F)c2)cc(=O)[nH]1 [Example 259, N-(1-{3-fluoro-4-[(trifluoromethyl)sulfanyl]phenyl}-1-methylethyl)-2-methyl-6-oxo-1,6-dihydropyrimidine-4-carboxamide] | 209 nM | 179 nM | 124 nM |  |
| CC(C)(C)[C@@H](NC(=O)c1cc(=O)[nH]c(C2CC2)n1)c1ccc(C(F)(F)F)cc1F [Example 445, 2-cyclopropyl-N-{(1R)-1-[2-fluoro-4-(trifluoromethyl)phenyl]-2,2-dimethylpropyl}-6-oxo-1,6-dihydropyrimidine-4-carboxamide] | 2.1 nM | 1.7 nM |  |  |
| Cc1nc(C(=O)N[C@H](C)c2cc(F)c(C(F)(F)F)c(F)c2)cc(=O)[nH]1 [Example 26, N-{(1R)-[3,5-difluoro-4-(trifluoromethyl)phenyl]ethyl}-2-methyl-6-oxo-1,6-dihydropyrimidine-4-carboxamide] |  |  | 231 nM | 104 nM |
| Cc1nc(C(=O)NC(C)c2ccc(C(C)C)cc2)cc(=O)[nH]1 (single isomer, unassigned) [Example 305, (R)- or (S)-2-methyl-N-{1-[4-(1-methylethyl)phenyl]ethyl}-6-oxo-1,6-dihydropyrimidine-4-carboxamide] |  |  | 26 nM | 20 nM |
| O=C(NCc1ccc(-c2ccccc2)cc1)c1cc(=O)[nH]c(-c2ccccc2)n1 [Example 372, N-(biphenyl-4-ylmethyl)-6-oxo-2-phenyl-1,6-dihydropyrimidine-4-carboxamide] |  | ~661 nM | ~149 nM |  |
| CC(C)c1ccc([C@@H](C)NC(=O)c2cc(=O)[nH]c(-c3ccccc3)n2)cc1 [Example 146, N-{(1R)-1-[4-(1-methylethyl)phenyl]ethyl}-6-oxo-2-phenyl-1,6-dihydropyrimidine-4-carboxamide] |  |  | 9.3 nM | 7.1 nM |

Continued, values first:

| Ki (Rhesus PDE2A3; [1]) | Ki (human PDE2A1; [2]) | Ki (Rhesus PDE2A3; [3]) | Ki (human PDE2A1; [4]) | SMILES |
| --- | --- | --- | --- | --- |
|  |  | 25 nM | 24 nM | Cc1nc(C(=O)N[C@H](C)c2ccc(C(F)(F)F)c(F)c2)cc(=O)[nH]1 [Example 20, N-{(1R)-1-[3-fluoro-4-(trifluoromethyl)phenyl]ethyl}-2-methyl-6-oxo-1,6-dihydropyrimidine-4-carboxamide] |
|  |  | 136 nM | 110 nM | Cc1ccccc1-c1nc(C(=O)N[C@H](C)c2ccc(C(F)(F)F)cc2)cc(=O)[nH]1 [Example 141, 2-(2-methylphenyl)-6-oxo-N-{(1R)-1-[4-(trifluoromethyl)phenyl]ethyl}-1,6-dihydropyrimidine-4-carboxamide] |
| 65 nM | 40 nM |  |  | CC(NC(=O)c1cc(=O)[nH]c(-c2ccccc2)n1)c1ccc(C(C)(C)C)cc1 (stereo not drawn) [Example 391, N-[1-(4-tert-butylphenyl)ethyl]-6-oxo-2-phenyl-1,6-dihydropyrimidine-4-carboxamide] |
| 105 nM | 126 nM |  |  | N#CC(NC(=O)c1cc(=O)[nH]c(-c2ccccc2)n1)c1ccc(C(F)(F)F)cc1 (stereo not drawn) [Example 413, N-{cyano[4-(trifluoromethyl)phenyl]methyl}-6-oxo-2-phenyl-1,6-dihydropyrimidine-4-carboxamide] |
| 1.3 nM | 1.7 nM |  |  | COc1ccc(Cc2nc(C(=O)N[C@@H](c3ccc(OC(F)(F)F)cc3)C(C)C)cc(=O)[nH]2)cc1F [Example 517, 2-(3-fluoro-4-methoxybenzyl)-N-{(1R)-2-methyl-1-[4-(trifluoromethoxy)phenyl]propyl}-6-oxo-1,6-dihydropyrimidine-4-carboxamide] |
|  |  | 6.5 nM | 5.1 nM | COc1cccc(Cc2nc(C(=O)N[C@H](C)c3ccc(C(F)(F)F)cc3)cc(=O)[nH]2)c1 [Example 140, 2-(3-methoxybenzyl)-6-oxo-N-{(1R)-1-[4-(trifluoromethyl)phenyl]ethyl}-1,6-dihydropyrimidine-4-carboxamide] |
|  |  | 5.2 nM | 2.6 nM | C[C@@H](NC(=O)c1cc(=O)[nH]c(-c2ccccc2)n1)c1ccc(C(F)(F)F)c(F)c1 [Example 148, N-{(1R)-1-[3-fluoro-4-(trifluoromethyl)phenyl]ethyl}-6-oxo-2-phenyl-1,6-dihydropyrimidine-4-carboxamide] |

Source: US9815796B2 (Merck Sharp & Dohme Corp., priority 2013, dated 2017)
